From publication PMC12431657, “Discovery and mechanistic insights of dibenzoylmethane as a broad spectrum inhibitor of coronavirus” (PLOS Pathogens, 2025)
Several values for one entry are separate records, joined by “and”; a condition that tells them apart may be missing. Equal values may be shown once.

Tested on: HCoV-OC43
Assay: Antiviral activity of DBM in the presence of IFN signalling suppressants
Assay type: cell-based
Description: Fig 6 DBM-mediated downregulation of caspase-6 restores IFN signalling suppressed by the coronavirus nucleocapsid protein. A) Intracellular levels of HCoV-OC43 nucleocapsid proteins and caspase-6 in HCoV-OC43-infected cells treated with serially diluted DBM or Z-VEID-FMK. Cells were pretreated with gradient-diluted DBM or Z-VEID-FMK prior to viral infection. B) Inhibitory effects of DBM against HCoV-OC43 and EV71. Cells were pre-treated with gradient-diluted DBM for 1 hour before inoculated with HCoV-OC43 or EV71, respectively. C) Attenuation of antiviral effects of DBM in IFN signalling-deficient cell lines. HEK293T-AT and Vero E6 cells were pre-treated with gradient-diluted DBM for 1 hour before infection. […] Cells were pretreated with gradient-diluted DBM or Z-VEID-FMK for 24 h, and then transfected with coronaviruses nucleocapsid proteins expression plasmid, and after 16 h of transfection, cells were treated with DMSO or STS. E) DBM alleviated the suppression of IFNB1 expression induced by coronaviruses nucleocapsid proteins and caspase-6. Cells were pretreated with DMSO or DBM for 24 h, subsequently, transfected with Poly(I:C) and plasmids. F) Impact of IFN signalling suppressants on the antiviral activity of DBM. Cells were pretreated with DMSO, Ruxolitinib or IFN alpha-IFNAR-IN-1 hydrochloride, respectively, for 1 hour. Subsequently, a gradient dilution of DBM was added to the medium, and then HCoV-OC43 was inoculated into the cells. Data were statistically analysed with Student’s T test. *: p ≤ 0.05, **: p ≤ 0.01, ***: p ≤ 0.001, ****: p ≤ 0.0001; ns, not significant. The experiments were repeated three times independently with similar results.
On the basis of this finding, we hypothesized that DBM downregulates caspase-6, reduces the cleavage of nucleocapsid proteins, and thereby enhances IFN signalling to inhibit viral replication. To test this hypothesis, we incubated cells transfected with plasmids expressing coronavirus nucleocapsid proteins in the presence or absence of DBM or Z-VEID-FMK. […] As the reduction in cleaved nucleocapsid protein fragments could theoretically […] IFN signalling, we sought to investigate the relationship between DBM treatment and IFN signalling. To this end, we further transfected cells with plasmids expressing both caspase-6 and coronavirus nucleocapsid proteins, and subsequently incubated the cells with or without DBM. […] Whereas the other two apoptosis-executing caspases, caspase-3 and caspase-7, could not inhibit IFN signalling in a similar system (S8C Fig). Furthermore, we examined the expression of IFNB1 and its downstream IFN-stimulated genes following DBM treatment in the context of HCoV-OC43 infection (S8D and S8E Fig).

O=C(CC(=O)c1ccccc1)c1ccccc1 [DBM, dibenzoylmethane]
Viral RNA copies (Fig6F) (DBM 0.06, with DMSO): 8575323 and 7173199 and 8361273 | Viral RNA copies (Fig6F) (DBM 0.06, with IFNi): 714000 and 1370000 and 1200000 | Viral RNA copies (Fig6F) (DBM 0.19, with DMSO): 4042565 and 5441926 and 4875856 | Viral RNA copies (Fig6F) (DBM 0.19, with IFNi): 1160000 and 961000 and 754000 | Viral RNA copies (Fig6F) (DBM 0.19, with RUX): 1920000 and 2400000 and 1530000 | Viral RNA copies (Fig6F) (DBM 0.56, with DMSO): 380096 and 713734 and 725626 | Viral RNA copies (Fig6F) (DBM 0.56, with IFNi): 1150000 and 922000 and 1030000 | Viral RNA copies (Fig6F) (DBM 0.56, with RUX): 1380000 and 2020000 and 2160000 | Viral RNA copies (Fig6F) (DBM 1.67, with DMSO): 91512 and 73409 and 91292 | Viral RNA copies (Fig6F) (DBM 1.67, with IFNi): 807000 and 1340000 | Viral RNA copies (Fig6F) (DBM 1.67, with RUX): 2040000 and 3700000 | Viral RNA copies (Fig6F) (DBM 5.00, with DMSO): 87392 and 81273 and 92455 | Viral RNA copies (Fig6F) (DBM 5.00, with IFNi): 1300000 and 976000 and 920000 | Viral RNA copies (Fig6F) (DBM 5.00, with RUX): 1880000 and 1760000 and 2040000 | antiviral activity of DBM, cells pretreated with IFN alpha-IFNAR-IN-1 hydrochloride (HCoV-OC43): markedly reduced | antiviral activity of DBM, cells pretreated with ruxolitinib (HCoV-OC43): markedly reduced
